According to the NIST ThermoML archive (doi:10.1021/je100315g):

Assays:
[1] = xn = mol fraction of the nth substance listed; conditions: 101 kPa, Liquid
[2] = 101 kPa, Liquid

CCCC[n+]1ccn(C)c1.O=S(=O)([N-]S(=O)(=O)C(F)(F)F)C(F)(F)F + C[S+](C)[O-]
mass density [kg/m3], [1]
Conditions	293.15 K	298.15 K	303.13 K	308.15 K	313.15 K
x1 = 0.1025	1202.34	1197.39	1192.43	1187.49	1182.55
x1 = 0.196	1263.15	1258.21	1253.26	1248.31	1243.37
x1 = 0.2358	1283.38	1278.4	1273.45	1268.49	1263.51
x1 = 0.3241	1319.45	1314.52	1309.58	1304.64	1299.72
x1 = 0.4205	1349.72	1344.81	1339.88	1334.99	1330.05
x1 = 0.4785	1364.67	1359.72	1354.8	1349.87	1344.87
x1 = 0.5179	1373.61	1368.67	1363.77	1358.86	1353.93
x1 = 0.5911	1388.28	1383.33	1378.5	1373.59	1368.72
x1 = 0.6581	1400.07	1395.16	1390.25	1385.42	1380.54
x1 = 0.8232	1423.06	1418.22	1413.34	1408.48	1403.6
x1 = 1	1441.63	1436.83	1431.98	1427.16	1422.36

CCn1cc[n+](C)c1.O=S(=O)([N-]S(=O)(=O)C(F)(F)F)C(F)(F)F + C[S+](C)[O-]
mass density [kg/m3], [1]
Conditions	x1 = 0.0593	x1 = 0.1959	x1 = 0.3595	x1 = 0.5086	x1 = 0.6325	x1 = 0.7778	x1 = 0.9378	x1 = 1
293.15 K	1173.7	1289.73	1375.56	1427.76	1459.88	1489.12	1513.61	1522.08
298.15 K	1168.67	1284.68	1370.44	1422.61	1454.75	1484.04	1508.51	1516.96
303.13 K	1163.66	1279.59	1365.31	1417.47	1449.64	1478.96	1503.42	1511.85
308.15 K	1158.66	1274.53	1360.26	1412.42	1444.59	1473.89	1498.38	1506.8
313.15 K	1153.63	1269.48	1355.2	1407.36	1439.52	1468.84	1493.29	1501.74

CC#N [acetonitrile]
[2]
Conditions	mass density [kg/m3]
293.15 K	781.89
298.15 K	776.52
303.13 K	771.12
308.15 K	765.68
313.15 K	760.2

CC#N [acetonitrile] + CCCC[n+]1ccn(C)c1.O=S(=O)([N-]S(=O)(=O)C(F)(F)F)C(F)(F)F
[1], x2 = 0
Conditions	mass density [kg/m3]
293.15 K	781.89
298.15 K	776.52
303.13 K	771.12
308.15 K	765.68
313.15 K	760.2

CC#N [acetonitrile] + CCn1cc[n+](C)c1.O=S(=O)([N-]S(=O)(=O)C(F)(F)F)C(F)(F)F
[1], x2 = 0
Conditions	mass density [kg/m3]
293.15 K	781.89
298.15 K	776.52
303.13 K	771.12
308.15 K	765.68
313.15 K	760.2

C[S+](C)[O-] [dimethyl sulfoxide]
[2]
Conditions	mass density [kg/m3]
293.15 K	1100.31
298.15 K	1095.3
303.13 K	1090.31
308.15 K	1085.27
313.15 K	1080.27

C[S+](C)[O-] [dimethyl sulfoxide] + CCCC[n+]1ccn(C)c1.O=S(=O)([N-]S(=O)(=O)C(F)(F)F)C(F)(F)F
[1], x2 = 0
Conditions	mass density [kg/m3]
293.15 K	1100.31
298.15 K	1095.3
303.13 K	1090.31
308.15 K	1085.27
313.15 K	1080.27

C[S+](C)[O-] [dimethyl sulfoxide] + CCn1cc[n+](C)c1.O=S(=O)([N-]S(=O)(=O)C(F)(F)F)C(F)(F)F
[1], x2 = 0
Conditions	mass density [kg/m3]
293.15 K	1100.31
298.15 K	1095.3
303.13 K	1090.31
308.15 K	1085.27
313.15 K	1080.27

C1CCOC1 [tetrahydrofuran]
[2]
Conditions	mass density [kg/m3]
293.15 K	887.41
298.15 K	881.98
303.13 K	876.47
308.15 K	870.96

C1CCOC1 [tetrahydrofuran] + CCCC[n+]1ccn(C)c1.O=S(=O)([N-]S(=O)(=O)C(F)(F)F)C(F)(F)F
[1], x2 = 0
Conditions	mass density [kg/m3]
293.15 K	887.41
298.15 K	881.98
303.13 K	876.47
308.15 K	870.96

C1CCOC1 [tetrahydrofuran] + CCn1cc[n+](C)c1.O=S(=O)([N-]S(=O)(=O)C(F)(F)F)C(F)(F)F
[1], x2 = 0
Conditions	mass density [kg/m3]
293.15 K	887.41
298.15 K	881.98
303.13 K	876.47
308.15 K	870.96
